According to patent US9187467B2, “2-phenyl benzothiazole linked imidazole compounds as potential anticancer agents and process for the preparation thereof” (Council of Scientific and Industrial Research, priority 2012, dated 2015):
Where two headings read alike, the source gives them in different places.

Legend:
IGROV1 = experiment: SRB anticancer assay, ovarian; format: cell-based, human; details: Homo sapiens, IGROV-1; IGROV1, 48 h
MALME-3M = experiment: SRB anticancer assay, melanoma; format: cell-based, human; design: Log10GI50: unit not given here; details: for GI50: Homo sapiens, Malme-3M, 48 h
ACHN = experiment: SRB anticancer assay, renal; format: cell-based, human; design: Log10GI50: unit not given here; details: for GI50: Homo sapiens, 48 h
OVCAR-8 = experiment: SRB anticancer assay, ovarian; format: cell-based, human; design: Log10GI50: unit not given here; details: for GI50: Homo sapiens, OVCAR-8, 48 h
BT-549 = experiment: SRB anticancer assay, breast; format: cell-based, human; details: Homo sapiens, BT-549, 48 h
SN12C = experiment: SRB anticancer assay, renal; format: cell-based, human; design: Log10GI50: unit not given here; details: for GI50: Homo sapiens, 48 h
PC-3 = experiment: SRB anticancer assay, prostate; format: cell-based, human; design: Log10GI50: unit not given here; details: for GI50: Homo sapiens, PC-3, 48 h
NCI-H322M = experiment: SRB anticancer assay, non-small lung; format: cell-based, human; details: Homo sapiens, 48 h
A498 = experiment: SRB anticancer assay, renal; format: cell-based, human; design: Log10GI50: unit not given here; details: for GI50: Homo sapiens, A498, 48 h
MDA-MB-231/ATCC = experiment: SRB anticancer assay, breast; format: cell-based, human; design: Log10GI50: unit not given here; details: for GI50: Homo sapiens, MDA-MB-231, 48 h, 48 h, read-out: GI50
K562 (Leukemia) cells = experiment: Cell cycle distribution by flow cytometry; format: cell-based
Protocol: (§1) In order to investigate the mechanism underlying the anti-proliferative effect of the compounds the cell cycle distribution was analyzed in K562 (Leukemia) and MCF-7 (Breast carcinoma) cell lines by flow cytometry. Compounds CA-4, 21a, 21d, 4c, 6d, 6e, 6f, 7d, 7h and 7j have shown 1.72%, 14%, 12%, 14%, 12%, 14%, 14%, 16%, 16% &12% in K562 cells and 49.63%, 21%, 20%, 18%, 21%, 21%, 21%, 24%, 23% and 23% in MCF-7 cell line respectively. […] Thus compound 7d was considered for further studies (FIG. 1).

MCF7 = experiment: SRB anticancer assay, breast; format: cell-based, human; details: Homo sapiens, MCF7, 48 h
HS 578T = experiment: SRB anticancer assay, breast; format: cell-based, human; design: Log10GI50: unit not given here; details: for GI50: Homo sapiens, 48 h
SK-OV-3 = experiment: SRB anticancer assay, ovarian; format: cell-based, human; details: Homo sapiens, SK-OV-3, 48 h
T-47D = experiment: SRB anticancer assay, breast; format: cell-based; details: Homo sapiens, T47D, 48 h
[1] = tested on: MCF-7 (Breast carcinoma) cells; experiment: Cell cycle distribution by flow cytometry (FACS); format: cell-based; details: MCF-7 cells, 2 μM, 24h
Protocol: FIG. 1 represents FACS analysis of cell cycle distribution of MCF-7 cells after treatment with compounds CA-4, 21a, 21d, 4c, 6d, 6e, 6f, 7d, 7h and 7j at 2 μM concentration for 24h and control cells are the cells treated with DMSO (0.25%).
as §1

UO-31 = experiment: SRB anticancer assay, renal; format: cell-based, human; design: Log10GI50: unit not given here; details: for GI50: Homo sapiens, UO-31, 48 h
HCT-116 = experiment: SRB anticancer assay, colon; format: cell-based, human; details: Homo sapiens, HCT-116, 48 h
HL-60 (TB) = experiment: SRB anticancer assay, leukemia; format: cell-based, human; design: Log10GI50: unit not given here; details: for GI50: Homo sapiens, HL-60, 48 h
SNB-19 = experiment: SRB anticancer assay, CNS; format: cell-based, human; design: Log10GI50: unit not given here; details: for GI50: Homo sapiens, SNB-19, 48 h
OVCAR-5 = experiment: SRB anticancer assay, ovarian; format: cell-based, human; details: Homo sapiens, OVCAR-5, 48 h
NCI-H23 = experiment: SRB anticancer assay, non-small lung; format: cell-based, human; details: for GI50: Homo sapiens, NCI-H23, 48 h
NCI-H226 = experiment: SRB anticancer assay, non-small lung; format: cell-based, human; details: Homo sapiens, NCI-H226, 48 h
UACC-62 = experiment: SRB anticancer assay, melanoma; format: cell-based, human; details: for GI50: Homo sapiens, UACC-62, 48 h
A549/ATCC = experiment: SRB anticancer assay, non-small lung; format: cell-based, human; design: Log10GI50: unit not given here; details: for GI50: Homo sapiens, 48 h
SNB-75 = experiment: SRB anticancer assay, CNS; format: cell-based, human; design: Log10GI50: unit not given here; details: for GI50: Homo sapiens, SNB-75, 48 h
SK-MEL-28 = experiment: SRB anticancer assay, melanoma; format: cell-based, human; design: Log10GI50: unit not given here; details: for GI50: Homo sapiens, SK-MEL-28, 48 h
SK-MEL-2 = experiment: SRB anticancer assay, melanoma; format: cell-based, human; details: Homo sapiens, SK-MEL-2, 48 h
UACC-257 = experiment: SRB anticancer assay, melanoma; format: cell-based, human; details: for GI50: Homo sapiens, UACC-257, 48 h
SF-268 = experiment: SRB anticancer assay, CNS; format: cell-based, human; design: Log10GI50: unit not given here; details: for GI50: Homo sapiens, SF-268, 48 h
RXF 393 = experiment: SRB anticancer assay, renal; format: cell-based, human; design: Log10GI50: unit not given here; details: for GI50: Homo sapiens, RXF 393, 48 h
[2] = MDA-MB-231/ATCC (row head MDA-MB-)
[3] = row head printed 231/ATCC (second line of MDA-MB-231/ATCC)

## COc1cc(OC)c2sc(-c3ccc(-n4cncc4-c4ccc(OC)c(OC)c4)cc3)nc2c1 [Compound 6e, 2-(4-(5-(3,4-Dimethoxyphenyl)-1H-imidazol-1-yl)phenyl)-5,7-dimethoxybenzo[d]thiazole]
IGROV1
  GI50: 56.1 µM
MALME-3M
  GI50: 59.8 µM
ACHN
  GI50: > 100 µM
OVCAR-8
  GI50: 21.2 µM
BT-549
  GI50: 3.78 µM
SN12C
  GI50: > 100 µM
PC-3
  GI50: 3.66 µM
NCI-H322M
  GI50: > 100 µM
A498
  GI50: 2.15 µM
MDA-MB-231/ATCC; [2]
  GI50: 28.4 µM
K562 (Leukemia) cells
  cells in G2/M phase: 14%
MCF7
  GI50: 5.36 µM
HS 578T
  GI50: 9.12 µM
SK-OV-3
  GI50: > 100 µM
T-47D
  GI50: 4.15 µM
[1]
  cells in G2/M phase: 21%
UO-31
  GI50: 31.7 µM
HCT-116
  GI50: 5.48 µM
HL-60 (TB)
  GI50: 3.09 µM
SNB-19
  GI50: > 100 µM
OVCAR-5
  GI50: > 100 µM
NCI-H23
  GI50: > 100 µM
NCI-H226
  GI50: 6.44 µM
UACC-62
  GI50: 8.14 µM
A549/ATCC
  GI50: 41.8 µM
SNB-75
  GI50: 7.21 µM
SK-MEL-28
  GI50: > 100 µM
SK-MEL-2
  GI50: 41.4 µM
UACC-257
  GI50: > 100 µM
SF-268
  GI50: 9.96 µM

## COc1cc(OC)c2sc(-c3ccc(-n4cncc4-c4cc(OC)c(OC)c(OC)c4)cc3)nc2c1 [Compound 6f, 5,7-Dimethoxy-2-(4-(5-(3,4,5-trimethoxyphenyl)-1H-imidazol-1-yl)phenyl)benzo[d]thiazole]
IGROV1
  GI50: 5.87 µM
MALME-3M
  GI50: 3.73 µM
ACHN
  GI50: 6.67 µM
OVCAR-8
  GI50: > 100 µM
BT-549
  GI50: 3.35 µM
SN12C
  GI50: > 100 µM
PC-3
  GI50: 2.54 µM
NCI-H322M
  GI50: > 100 µM
A498
  GI50: 1.83 µM
MDA-MB-231/ATCC; [2]
  GI50: 3.51 µM
K562 (Leukemia) cells
  cells in G2/M phase: 14%
MCF7
  GI50: 3.88 µM
RXF 393
  GI50: 2.8 µM
HS 578T
  GI50: 5.23 µM
SK-OV-3
  GI50: > 100 µM
T-47D
  GI50: 3.27 µM
[1]
  cells in G2/M phase: 21%
UO-31
  GI50: 2.27 µM
HCT-116
  GI50: 3.92 µM
HL-60 (TB)
  GI50: 3.3 µM
SNB-19
  GI50: > 100 µM
OVCAR-5
  GI50: > 100 µM
NCI-H23
  GI50: 6.15 µM
UACC-62
  GI50: 4.14 µM
A549/ATCC
  GI50: 6.16 µM
SNB-75
  GI50: 6.47 µM
SK-MEL-2
  GI50: 6.09 µM
UACC-257
  GI50: > 100 µM

## COc1cc(OC)cc(-c2cncn2-c2ccc(-c3nc4cc(OC)cc(OC)c4s3)cc2)c1 [Compound 6d, 2-(4-(5-(3,5-Dimethoxyphenyl)-1H-imidazol-1-yl)phenyl)-5,7-dimethoxybenzo[d]thiazole]
IGROV1
  GI50: 5.07 µM
ACHN
  GI50: > 100 µM
OVCAR-8
  GI50: 14.5 µM
BT-549
  GI50: 5.77 µM
SN12C
  GI50: > 100 µM
NCI-H322M
  GI50: > 100 µM
A498
  GI50: 3.15 µM
MDA-MB-231/ATCC; [2]
  GI50: 9.01 µM
MDA-MB-231/ATCC; [3]
  GI50: 5.02 µM
K562 (Leukemia) cells
  cells in G2/M phase: 12%
MCF7
  GI50: 3.82 µM
RXF 393
  GI50: 6.58 µM
HS 578T
  GI50: 3.09 µM
SK-OV-3
  GI50: 4.69 µM
T-47D
  GI50: 3.17 µM
[1]
  cells in G2/M phase: 21%
HCT-116
  GI50: 4.93 µM
SNB-19
  GI50: > 100 µM
OVCAR-5
  GI50: > 100 µM
NCI-H23
  GI50: 10.3 µM
NCI-H226
  GI50: 18.5 µM
UACC-62
  GI50: 4.75 µM
SNB-75
  GI50: 3.28 µM
SK-MEL-28
  GI50: > 100 µM
SK-MEL-2
  GI50: 9.69 µM
UACC-257
  GI50: > 100 µM
SF-268
  GI50: 11.3 µM

## COc1cc2nc(-c3ccc(-n4cncc4-c4ccc(N)cc4)cc3)sc2c(OC)c1OC [Compound 7h, 4-(1-(4-(5,6,7-Trimethoxybenzo[d]thiazol-2-yl)phenyl)-1H-imidazol-5-yl)benzenamine]
IGROV1
  GI50: 2.63 µM
MALME-3M
  GI50: 0.71 µM
MALME-3M; MALME-3M, present compounds
  Log10GI50: −6.15
ACHN
  GI50: 8.56 µM
ACHN; present compounds
  Log10GI50: −5.07
OVCAR-8
  GI50: 4.23 µM
OVCAR-8; OVCAR-8, present compounds
  Log10GI50: −5.37
BT-549
  GI50: 1.59 µM
SN12C
  GI50: 8.95 µM
SN12C; present compounds
  Log10GI50: −5.05
PC-3
  GI50: 3.02 µM
PC-3; PC-3, present compounds
  Log10GI50: −5.52
NCI-H322M
  GI50: 2.07 µM
A498; A498, present compounds
  Log10GI50: −5.67
A498
  GI50: 2.13 µM
MDA-MB-231/ATCC; [2]
  GI50: 3.65 µM
MDA-MB-231/ATCC; [3]
  GI50: 5.36 µM
MDA-MB-231/ATCC; MDA-MB-231/ATCC, present compounds
  Log10GI50: −5.44
K562 (Leukemia) cells
  cells in G2/M phase: 16%
MCF7
  GI50: 3.02 µM
RXF 393
  GI50: 4.41 µM
RXF 393; RXF 393, present compounds
  Log10GI50: −5.36
HS 578T; present compounds
  Log10GI50: −5.27
SK-OV-3
  GI50: 11.7 µM
T-47D
  GI50: 1.82 µM
[1]
  cells in G2/M phase: 23%
UO-31
  GI50: 1.55 µM
UO-31; UO-31, present compounds
  Log10GI50: −5.81
HCT-116
  GI50: 3.81 µM
HL-60 (TB); HL-60(TB), present compounds
  Log10GI50: −6.00
HL-60 (TB)
  GI50: 0.989 µM
SNB-19
  GI50: 12.3 µM
SNB-19; SNB-19, present compounds
  Log10GI50: −4.91
OVCAR-5
  GI50: 34.3 µM
NCI-H23
  GI50: 3.87 µM
NCI-H23; NCI-H23, present compounds
  Log10GI50: −5.41 log10(M)
NCI-H226
  GI50: 4.73 µM
UACC-62
  GI50: 5.45 µM
UACC-62; UACC-62, present compounds
  Log10GI50: −5.26 log10 M
A549/ATCC
  GI50: 3.14 µM
A549/ATCC; present compounds
  Log10GI50: −5.50
SNB-75
  GI50: 5.94 µM
SNB-75; SNB-75, present compounds
  Log10GI50: −5.23
SK-MEL-28
  GI50: > 100 µM
SK-MEL-28; SK-MEL-28, present compounds
  Log10GI50: >−4.0
UACC-257
  GI50: 6.4 µM
UACC-257; UACC-257, present compounds
  Log10GI50: −5.19 log10(M)
SF-268
  GI50: 12.3 µM
SF-268; SF-268, present compounds
  Log10GI50: −4.91
